Drawing on patent publication US20220227737A1, “NOVEL OXALYL PIPERAZINES ACTIVE AGAINST THE HEPATITIS B VIRUS (HBV)” (AiCuris GmbH & Co. KG, priority 2019, published 2022), this text covers CC50, EC50 and IC50 for 16 compounds.

Series [1] is described as follows: Cell viability assay (AlamarBlue). Conditions: human, HepAD38 cells. Background: The colour change of resazurin is a common sign of viable cells or microbes.
Another series relates to HBV. The series can be described thus: HBV replication assay: HBV DNA from the supernatants of HepAD38 cells. The format is cell-based. Conditions: Hepatitis B virus, 144 h, HBV DNA in supernatant at day 6, read-out: Cell Activity. The method, then:
Determination of HBV DNA from the Supernatants of HepAD38 Cells
The anti-HBV activity was analysed in the stable transfected cell line HepAD38, which has been described to secrete high levels of HBV virion particles (Ladner et al., 1997). In brief, HepAD38 cells were cultured at 37° C. at 5% CO2 and 95% humidity in 200 μl maintenance medium, which was Dulbecco's modified Eagle's medium/Nutrient Mixture F-12 (Gibco, Karlsruhe), 10% fetal bovine serum (PAN Biotech Aidenbach) supplemented with 50 μg/ml penicillin/streptomycin (Gibco, Karlsruhe), 2 mM L-glutamine (PAN Biotech, Aidenbach), 400 μg/ml G418 (AppliChem, Darmstadt) and 0.3 μg/ml tetracycline. Cells were subcultured once a week in a 1:5 ratio, but were usually not passaged more than ten times. For the assay 60,000 cells were seeded in maintenance medium without any tetracycline into each well of a 96-well plate and treated with serial half-log dilutions of test compound. To minimize edge effects the outer 36 wells of the plate were not used but were filled with assay medium. On each assay plate six wells for the virus control (untreated HepAD38 cells) and six wells for the cell control (HepAD38 cells treated with 0.3 μg/ml tetracycline) were allocated, respectively. In addition, one plate set with reference inhibitors like BAY 41-4109, entecavir, and lamivudine instead of screening compounds were prepared in each experiment. In general, experiments were performed thrice in triplicates. At day 6 HBV DNA from 100 μl filtrated cell culture supernatant (AcroPrep Advance 96 Filter Plate, […] Supor membran, PALL GmbH, Dreieich) was automatically purified on the MagNa Pure LC instrument using the MagNA Pure 96 DNA and Viral NA Small Volume Kit (Roche Diagnostics, Mannheim) according to the instructions of the manufacturer. EC50 values were calculated from relative copy numbers of HBV DNA In brief, 5 μl of the 100 μl eluate containing HBV DNA were subjected to PCR LC480 Probes Master Kit (Roche) together with 1 μM antisense primer […], 0.5 μM sense primer […], 0.3 μM hybprobes […]-FL and LC640-[…]-PH (TIBMolBiol, Berlin) to a final volume of […]. The PCR was performed on the Light Cycler 480 real time system (Roche Diagnostics, Mannheim) using the following protocol: Pre-incubation for 1 min at 95° C., amplification: 40 cycles×(10 sec at 95° C., 50 sec at 60° C., 1 sec at 70° C.), cooling for 10 sec at 40° C. Viral load was quantitated against known standards using HBV plasmid DNA of pCH-9/3091 (Nassal et al., 1990, Cell 63: 1357-1363) and the LightCycler 480 SW 1.5 software (Roche Diagnostics, Mannheim) and EC50 values were calculated using non-linear regression with GraphPad Prism 6 (GraphPad Software Inc., La Jolla, USA).

Series [2] has as its target T1, C-terminal truncated core protein (HBV core dimer, BODIPY-FL labelled) (UniProt P03146).
T1 construct: fused on or other part: One added cysteine at position 150, labelled with BODIPY-FL maleimide; The C-terminal arginine-rich domain is absent
The series can be described thus: Biochemical capsid assembly assay (fluorescence quenching). The method, then: Biochemical Capsid Assembly Assay
The screening for assembly effector activity was done based on a fluorescence quenching assay published by Zlotnick et al. (2007). The C-terminal truncated core protein containing 149 amino acids of the N-terminal assembly domain fused to a unique cysteine residue at position 150 and was expressed in E. coli using the pET expression system (Merck Chemicals, Darmstadt). Purification of core dimer protein was performed using a sequence of size exclusion chromatography steps. In brief, the cell pellet from 1 L BL21 (DE3) Rosetta2 culture expressing the coding sequence of core protein cloned NdeI/XhoI into expression plasmid pET21b was treated for 1 h on ice with a native lysis buffer (Qproteome Bacterial Protein Prep Kit; Qiagen, Hilden). After a centrifugation step the supernatant was precipitated during 2 h stirring on ice with 0.23 g/ml of solid ammonium sulfate. Following further centrifugation the resulting pellet was resolved in buffer A (100 mM Tris, pH 7.5; 100 mM NaCl; 2 mM DTT) and was subsequently loaded onto a buffer A equilibrated CaptoCore 700 column (GE HealthCare, Frankfurt). The column flow through containing the assembled HBV capsid was dialyzed against buffer N (50 mM NaHCO3 pH 9.6; 5 mM DTT) before urea was added to a final concentration of 3M to dissociate the capsid into core dimers for 1.5 h on ice. The protein solution was then loaded onto a 1 L Sephacryl 5300 column. After elution with buffer N core dimer containing fractions were identified by SDS-PAGE and subsequently pooled and dialyzed against 50 mM HEPES pH 7.5; 5 mM DTT. To improve the assembly capacity of the purified core dimers a second round of assembly and disassembly starting with the addition of 5 M NaCl and including the size exclusion chromatography steps described above was performed. From the last chromatography step core dimer containing fractions were pooled and stored in aliquots at concentrations between 1.5 to 2.0 mg/ml at −80° C.
Immediately before labelling the core protein was reduced by adding freshly prepared DTT in a final concentration of 20 mM. After 40 min incubation on ice storage buffer and DTT was removed using a Sephadex G-25 column (GE HealthCare, Frankfurt) and 50 mM HEPES, pH 7.5. For labelling 1.6 mg/ml core protein was incubated at 4° C. and darkness overnight with BODIPY-FL maleimide (Invitrogen, Karlsruhe) in a final concentration of 1 mM. After labelling the free dye was removed by an additional desalting step using a Sephadex G-25 column. Labelled core dimers were stored in aliquots at 4° C. In the dimeric state the fluorescence signal of the labelled core protein is high and is quenched during the assembly of the core dimers to high molecular capsid structures. The screening assay was performed in black 384 well microtiter plates in a total assay volume of 10 μl using 50 mM HEPES pH 7.5 and 1.0 to 2.0 μM labelled core protein. Each screening compound was added in 8 different concentrations using a 0.5 log-unit serial dilution starting at a final concentration of 100 μM, 31.6 μM or 10 μM, In any case the DMSO concentration over the entire microtiter plate was 0.5%. The assembly reaction was started by the injection of NaCl to a final concentration of […] which induces the assembly process to approximately 25% of the maximal quenched signal. […] after starting the reaction the fluorescence signal was measured using a Clariostar plate reader (BMG Labtech, Ortenberg) with an excitation of 477 nm and an emission of 525 nm. As 100% and 0% assembly control HEPES buffer containing 2.5 M and 0 M NaCl was used. Experiments were performed thrice in triplicates. EC50 values were calculated by non-linear regression analysis using the Graph Pad Prism 6 software (GraphPad Software, La Jolla, USA).

A value given as a limit tells only on which side of the number the result lay.

T1 sequence (P03146 whole entry, the tested form may be a part): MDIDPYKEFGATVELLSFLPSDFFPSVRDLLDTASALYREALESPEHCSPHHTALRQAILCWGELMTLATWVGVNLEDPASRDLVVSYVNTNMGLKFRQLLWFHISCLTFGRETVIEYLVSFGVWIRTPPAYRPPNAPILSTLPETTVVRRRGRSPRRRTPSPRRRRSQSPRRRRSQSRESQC

In general, CC50 refers to the concentration giving 50% cytotoxicity. A lower CC50 goes with greater toxicity to the cells. One may read the IC50 as the concentration needed to halve the response being measured. Low readings indicate greater potency, high ones weaker potency. In series [1], `O=C(NCC1CCOC1)C(=O)N1CCN(C(=O)c2cc3ccccc3[nH]2)CC1` (stereo not drawn) [Example 4, 2-(4-(1H-indole-2-carbonyl)piperazin-1-yl)-2-oxo-N-((tetrahydrofuran-3-yl)methyl)acetamide] returned a CC50 at 6 days greater than 100 µM. The EC50 in the series with HBV lay in the range of 1 to 10 µM. Also, the IC50 in series [2] was less than 100 µM.

Turning to `CCCCNC(=O)C(=O)N1CCCN(C(=O)c2cc3ccccc3[nH]2)CC1` [Example 8, N-butyl-2-[4-(1H-indole-2-carbonyl)-1,4-diazepan-1-yl]-2-oxoacetamide], the CC50 at 6 days in series [1] was greater than 100 µM. For the same compound, the EC50 with HBV is less than 1 µM. The same compound returned a concentration for half-maximal inhibition (IC50) in series [2] of less than 100 µM.

`C[C@@H](O)CNC(=O)C(=O)N1CCN(C(=O)c2cc3c(F)cc(F)cc3[nH]2)CC1` [Example 64, (R)-2-(4-(4,6-difluoro-1H-indole-2-carbonyl)piperazin-1-yl)-N-(2-hydroxypropyl)-2-oxoacetamide] came in with a CC50 at 6 days in series [1] greater than 100 µM. In addition, in the series on HBV, the EC50 was less than 1 µM. In series [2], the IC50 is less than 5 µM.

The compound `CCCCNC(=O)C(=O)N1CCN(C(=O)c2cc3c(F)cc(F)cc3[nH]2)CC1` [Example 9, N-butyl-2-(4-(4,6-difluoro-1H-indole-2-carbonyl)piperazin-1-yl)-2-oxoacetamide] had a CC50 at 6 days in series [1] greater than 100 µM. Also, the EC50 in the series with HBV was less than 1 µM. The half-maximal inhibitory concentration (IC50) in series [2] was less than 5 µM.

Regarding `CCCCNC(=O)C(=O)N1CCN(C(=O)c2cc3cccc(F)c3[nH]2)CC1` [Example 25, N-butyl-2-(4-(7-fluoro-1H-indole-2-carbonyl)piperazin-1-yl)-2-oxoacetamide], the CC50 at 6 days in series [1] was greater than 100 µM. Also, the EC50 with HBV is less than 1 µM. In addition, in series [2], the half-inhibitory concentration (IC50) is less than 5 µM.

`CCCCNC(=O)C(=O)N1CCN(C(=O)c2cc3ccc(F)cc3[nH]2)CC1` [Example 23, N-butyl-2-(4-(6-fluoro-1H-indole-2-carbonyl)piperazin-1-yl)-2-oxoacetamide] returned a CC50 at 6 days in series [1] greater than 100 µM. Further, the EC50 with HBV is less than 1 µM. Also, the concentration for half-maximal inhibition (IC50) in series [2] was less than 5 µM.

`C[C@H](O)CNC(=O)C(=O)N1CCN(C(=O)c2cc3c(F)cc(F)cc3[nH]2)CC1` [Example 58, (S)-2-(4-(4,6-difluoro-1H-indole-2-carbonyl)piperazin-1-yl)-N-(2-hydroxypropyl)-2-oxoacetamide] yielded a CC50 at 6 days in series [1] greater than 100 µM. In the series with HBV, the EC50 was less than 1 µM. The compound further came in with a concentration for half-maximal inhibition (IC50) in series [2] of less than 5 µM.

Turning to `O=C(NCCCCO)C(=O)N1CCN(C(=O)c2cc3c(F)cc(F)cc3[nH]2)CC1` [Example 62, 2-(4-(4,6-difluoro-1H-indole-2-carbonyl)piperazin-1-yl)-N-(4-hydroxybutyl)-2-oxoacetamide], the CC50 at 6 days in series [1] was greater than 100 µM. Further, the EC50 in the series on HBV was less than 1 µM. The compound also showed a half-inhibitory concentration (IC50) in series [2] of less than 5 µM.

Compound `CC(O)CCCNC(=O)C(=O)N1CCN(C(=O)c2cc3c(F)cc(F)cc3[nH]2)CC1` (stereo not drawn) [Example 60, 2-(4-(4,6-difluoro-1H-indole-2-carbonyl)piperazin-1-yl)-N-(4-hydroxypentyl)-2-oxoacetamide] returned a half-maximal cytotoxic concentration (CC50) at 6 days in series [1] greater than 100 µM. In addition, the EC50 in the series on HBV was less than 1 µM. This compound also showed an IC50 in series [2] of less than 5 µM.

In series [1], `O=C(NCC1(O)CCC1)C(=O)N1CCN(C(=O)c2cc3ccccc3[nH]2)CC1` [Example 30, 2-(4-(1H-indole-2-carbonyl)piperazin-1-yl)-N-((1-hydroxycyclobutyl)methyl)-2-oxoacetamide] yielded a CC50 at 6 days greater than 100 µM. Besides, the EC50 with HBV was less than 1 µM. The compound also gave an IC50 in series [2] of less than 5 µM.

`CC1(CNC(=O)C(=O)N2CCN(C(=O)c3cc4ccccc4[nH]3)CC2)CCOC1` (stereo not drawn) [Example 12, 2-[4-(1H-indole-2-carbonyl)piperazin-1-yl]-N-[(3-methyloxolan-3-yl)methyl]-2-oxoacetamide] showed a 50% cytotoxic concentration (CC50) at 6 days in series [1] greater than 100 µM. The EC50 in the series with HBV was less than 1 µM. The compound also displayed an IC50 in series [2] of less than 5 µM.

Regarding `O=C(NCC1(O)CC1)C(=O)N1CCN(C(=O)c2cc3c(F)cc(F)cc3[nH]2)CC1` [Example 53, 2-(4-(4,6-difluoro-1H-indole-2-carbonyl)piperazin-1-yl)-N-((1-hydroxycyclopropyl)methyl)-2-oxoacetamide], in series [1], the 50% cytotoxic concentration (CC50) at 6 days was greater than 100 µM. The EC50 with HBV is less than 1 µM. In addition, the 50% inhibitory concentration (IC50) in series [2] is less than 5 µM.

The compound `O=C(NCCCCCO)C(=O)N1CCN(C(=O)c2cc3c(F)cc(F)cc3[nH]2)CC1` [Example 57, 2-(4-(4,6-difluoro-1H-indole-2-carbonyl)piperazin-1-yl)-N-(5-hydroxypentyl)-2-oxoacetamide] displayed a CC50 at 6 days in series [1] greater than 100 µM. Moreover, the EC50 in the series on HBV was 1 to 10 µM. The compound further had a half-maximal inhibitory concentration (IC50) in series [2] of less than 5 µM.

For the compound `O=C(NCC1(CO)CC1)C(=O)N1CCN(C(=O)c2cc3ccccc3[nH]2)CC1` [Example 31, 2-(4-(1H-indole-2-carbonyl)piperazin-1-yl)-N-((1-(hydroxymethyl)cyclopropyl)methyl)-2-oxoacetamide], the cytotoxic concentration (CC50) at 6 days in series [1] was greater than 100 µM. Further, the EC50 in the series with HBV is less than 1 µM. The half-inhibitory concentration (IC50) in series [2] fell in the range of 5 to 10 µM.

On to `O=C(NCCCCO)C(=O)N1CCN(C(=O)c2cc3ccccc3[nH]2)CC1` [Example 29, 2-(4-(1H-indole-2-carbonyl)piperazin-1-yl)-N-(4-hydroxybutyl)-2-oxoacetamide], for which the half-maximal cytotoxic concentration (CC50) at 6 days in series [1] is greater than 100 µM. In the series with HBV, the EC50 was in the range of 1 to 10 µM. In series [2], this compound registered an IC50 of less than 5 µM.

Consider `CCCCCCNC(=O)C(=O)N1CCN(C(=O)c2cc3ccccc3[nH]2)CC1` [Example 11, 2-(4-(1H-indole-2-carbonyl)piperazin-1-yl)-N-hexyl-2-oxoacetamide], for which the cytotoxic concentration (CC50) at 6 days in series [1] was greater than 100 µM. Also, in the series with HBV, the EC50 lay in the range of 1 to 10 µM. In series [2], this compound yielded an IC50 of less than 5 µM.
